Measured values as given in publication PMC5025651, “Reprofiled anthelmintics abate hypervirulent stationary-phase Clostridium difficile” (Scientific Reports, 2016).
≈ marks a conversion by molar mass, not a printed value.

Legend:
[1] = test system: C. difficile strain 630 (CD630, ATCC BAA-1382-FZ, ribotype 012); test: MIC by broth microdilution; format: cell-based, Clostridium difficile; settings: for MIC: Clostridioides difficile, ATCCBAA1382, BHIS broth, anaerobic, 20–24 h, n = 2
[2] = test system: C. difficile strain 4118 (CD4118, ATCC BAA-1870, ribotype 027); test: MIC by broth microdilution; format: cell-based, Clostridium difficile; settings: for MIC: Clostridioides difficile, ATCCBAA1870, BHIS broth, anaerobic, 20–24 h, n = 2, read-out: MIC C. difficile 4118
[3] = test system: P. aeruginosa PAO1; test: MIC by broth microdilution; format: cell-based; settings: Pseudomonas aeruginosa; P. aeruginosa PAO1; CAMHB, aerobic; duplicate; read-out: MIC
[4] = test system: B. subtilis ATCC 6051; test: MIC by broth microdilution; format: cell-based; settings: Bacillus subtilis, ATCC6051; B. subtilis ATCC 6051; CAMHB, aerobic; duplicate; read-out: MIC
[5] = test system: B. breve Strain EX336960VC19; test: MIC by broth microdilution; format: cell-based; settings: Bifidobacterium breve; B. breve EX336960VC19; LSM broth, anaerobic; duplicate; read-out: MIC
[6] = test system: P. distasonis ATCC 8503; test: MIC by broth microdilution; format: cell-based; settings: Parabacteroides distasonis, ATCC8503; P. distasonis ATCC 8503; supplemented Brucella broth, anaerobic; duplicate; read-out: MIC
[7] = test system: L. plantarum ATCC 8014; test: MIC by broth microdilution; format: cell-based; settings: Lactiplantibacillus plantarum, ATCC8014; L. plantarum ATCC 8014; CAMHB with 5% laked horse blood, ~48 h; duplicate; read-out: MIC
[8] = test system: B. longum subsp. longum Strain 44B; test: MIC by broth microdilution; format: cell-based; settings: Bifidobacterium longum; B. longum subsp. longum 44B; LSM broth, anaerobic; duplicate; read-out: MIC
[9] = test system: P. nigrescens ATCC 33563; test: MIC by broth microdilution; format: cell-based; settings: Prevotella nigrescens, ATCC33563; P. nigrescens ATCC 33563; supplemented Brucella broth, anaerobic; duplicate; read-out: MIC
[10] = test system: S. epidermidis 1457; test: MIC by broth microdilution; format: cell-based; settings: Staphylococcus epidermidis; S. epidermidis 1457; CAMHB, aerobic; duplicate; read-out: MIC
[11] = test system: A. baumannii M2; test: MIC by broth microdilution; format: cell-based; settings: Acinetobacter baumannii; A. baumannii M2; CAMHB, aerobic; duplicate; read-out: MIC
[12] = test system: S. aureus RN4220; test: MIC by broth microdilution; format: cell-based; settings: Staphylococcus aureus, CAMHB, aerobic, duplicate
[13] = test system: B. fragilis Strain CL05T00C42; test: MIC by broth microdilution; format: cell-based; settings: Bacteroides fragilis; B. fragilis CL05T00C42; supplemented Brucella broth, anaerobic; duplicate; read-out: MIC
[14] = test system: B. thetaiotaomicron ATCC 29148; test: microbe, parasite or virus in culture; format: cell-based; settings: Bacteroides thetaiotaomicron, ATCC29148; B. thetaiotaomicron ATCC 29148; supplemented Brucella broth, anaerobic; duplicate; read-out: MIC
[15] = test system: L. johnsonii Strain 135-1-CHN; test: MIC by broth microdilution; format: cell-based; settings: Lactobacillus johnsonii, STRAIN1351CHN; L. johnsonii 135-1-CHN; CAMHB with 5% laked horse blood, ~48 h; duplicate; read-out: MIC
[16] = test system: L. reuteri Strain CF48-3A; test: MIC by broth microdilution; format: cell-based, Lactobacillus reuteri; settings: Limosilactobacillus reuteri; L. reuteri CF48-3A; CAMHB with 5% laked horse blood, ~48 h; duplicate; read-out: MIC
[17] = test system: C. clostridioforme ATCC 25537; test: MIC by broth microdilution; format: cell-based, Clostridium clostridioforme; settings: Clostridium, ATCC25537; C. clostridioforme ATCC 25537; BHIS, anaerobic; duplicate; read-out: MIC
[18] = test system: C. sporogenes ATCC 15579; test: MIC by broth microdilution; format: cell-based; settings: Clostridium sporogenes, ATCC15579, BHIS, anaerobic, duplicate

SMILES	MIC [1] [µg/mL]	MIC [2] [µg/mL]	further results
O=C(Nc1ccc2ccccc2c1)c1cc(I)cc(I)c1 [Compound 6c]	> 32	> 32	in vitro activity against CD630 (in words) ([1]; growth inhibition, MIC assay): inactive; in vitro activity against CD4118 (in words) ([2]; growth inhibition, MIC assay): inactive
O=C(Nc1ccc(-c2ccccc2)cc1)c1cc(I)cc(I)c1O [Compound 7a]	0.5 (≈ 0.924 µM)	1 (≈ 1.85 µM)	–
O=C(Nc1ccc(Cl)cc1)c1cc(I)cc(I)c1O [Compound 7b]	0.25 (≈ 0.501 µM)	0.5 (≈ 1 µM)	MIC [3]: > 32 µg/mL; MIC [4]: 0.06 µg/mL (≈ 0.12 µM); MIC [5]: 8 µg/mL (≈ 16 µM); MIC [6]: 8 µg/mL (≈ 16 µM); MIC [7]: 32 µg/mL (≈ 64.1 µM); MIC [8]: 8 µg/mL (≈ 16 µM); MIC [9]: 4 µg/mL (≈ 8.01 µM); MIC [10]: ≤ 0.03 µg/mL; MIC [11]: 32 µg/mL (≈ 64.1 µM); MIC [12]: 0.06 µg/mL (≈ 0.12 µM); MIC [13]: 32 µg/mL (≈ 64.1 µM); MIC [14]: > 32 µg/mL; MIC [15]: 32 µg/mL (≈ 64.1 µM); MIC [16]: 32 µg/mL (≈ 64.1 µM); MIC [17]: 16 µg/mL (≈ 32 µM); MIC [18]: 16 µg/mL (≈ 32 µM)
O=C(Nc1ccccc1Cl)c1cc(I)cc(I)c1O [Compound 7c]	8 (≈ 16 µM)	8 (≈ 16 µM)	–
O=C(Nc1ccc(I)cc1)c1cc(I)cc(I)c1O [Compound 7d]	0.13 (≈ 0.22 µM)	0.25 (≈ 0.423 µM)	–
O=C(Nc1ccc2c(c1)Cc1ccccc1-2)c1cc(I)cc(I)c1O [Compound 7e, N-(9H-Fluoren-2-yl)-2-hydroxy-3,5-diiodobenzamide]	0.25 (≈ 0.452 µM)	0.5 (≈ 0.904 µM)	–
O=C(NCCc1ccccc1Cl)c1cc(I)cc(I)c1O [Compound 7f]	2 (≈ 3.79 µM)	2 (≈ 3.79 µM)	–
O=C(NCCc1cccc(Cl)c1)c1cc(I)cc(I)c1O [Compound 7g]	1 (≈ 1.9 µM)	1 (≈ 1.9 µM)	–
O=C(NCCc1ccc(Cl)cc1)c1cc(I)cc(I)c1O [Compound 7h]	0.25 (≈ 0.474 µM)	0.5 (≈ 0.948 µM)	–
O=C(NCCc1ccc(Cl)cc1Cl)c1cc(I)cc(I)c1O [Compound 7i]	0.25 (≈ 0.445 µM)	0.5 (≈ 0.89 µM)	–
